Assays:
Format in all cases: cell-based
p-ERK [1] = assay: Cell p-ERK assay (HTRF, Advance ERK phospho-T202/Y204 kit) in NCI-H441 cells; conditions: Homo sapiens, NCI-H441, 3 h, NCI-H441, human non-small cell lung cancer cell strain, KRAS G12V mutation; 3 h compound incubation
Summary of the method: (§1)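 AsPC-1 (KRAS G12D) or NCI-H441 (KRAS G12V) cells seeded overnight, then treated 3 h at 37 °C with compound (0.1% DMSO) in RPMI-1640/10% FBS. Lysates assayed for ERK phospho-T202/Y204 by HTRF; inhibition vs DMSO and blank wells, IC50 from four-parameter fit.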

p-ERK [2] = assay: Cell p-ERK assay (HTRF, Advance ERK phospho-T202/Y204 kit) in AsPC-1 cells; conditions: ASPC1; AsPC-1, human pancreatic cancer cell strain, KRAS G12D mutation; 3 h compound incubation
Summary of the method: as §1

NCI-H441 cells = assay: 3D cell proliferation assay (CellTiter Glo-3D) in NCI-H441 cells; conditions: Homo sapiens, NCI-H441, 120 h, NCI-H441, human lung cancer cell strain, KRAS G12V mutation; 3D culture, 2% FBS, 5 days; read-out: H441 AP IC50
Summary of the method: (§2)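 KRAS^G12V NCI-H441 and KRAS^G12D AsPC-1 cells (800 cells/well each) grown in RPMI-1640 with 2% FBS and treated the day after seeding with 3.16-fold compound dilutions (0.1% DMSO) for 5 days at 37 °C. Viability by CellTiter-Glo 3D luminescence; inhibition versus DMSO and cell-free controls, IC50 from four-parameter fit.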

AsPC-1 cells = assay: 3D cell proliferation assay (CellTiter Glo-3D) in AsPC-1 cells; conditions: ASPC1, 120 h; AsPC-1, human pancreatic cancer cell strain, KRAS G12D mutation; 3D culture, 2% FBS, 5 days; read-out: AsPC-1 AP IC50
Summary of the method: as §2

Row | IC50 (p-ERK [1]) [nM] | IC50 (p-ERK [2]) [nM] | IC50 (NCI-H441 cells) [nM] | IC50 (AsPC-1 cells) [nM] | SMILES
1 | 3.5 | 4.9 | 4.56 | 5.12 | CO[C@@H](C)c1ncc(C#CCN2CCC(C#N)(CN)CC2)cc1-c1c2c(nn1C(C)C)/C=C/c1csc(n1)C[C@H](NC(=O)[C@H]1[C@H](C)[C@@H]1C)C(=O)N1CCC[C@H](N1)C(=O)OCC(C)(C)C2 (atropisomer, axis not shown; (Ra)) [Compound Z62]
2 | 40.4 | 230 | 40.6 | 374 | CCn1c(-c2cc(C#CCN3CCS(=O)(=O)CC3)cnc2[C@H](C)OC)c2c3cc(ccc31)NC(=O)OC[C@H](NC(=O)[C@H]1[C@H](C)[C@@H]1C)C(=O)N1CCC[C@H](N1)C(=O)OCC(C)(C)C2 (atropisomer, axis not shown; (Ra)) [Compound Z36, (1r,2R,3S)-N-((7^3S,9S)-1^2-(5-(3-(1,1-dioxidothiomorpholino)prop-1-yn-1-yl)-2-((S)-1-methoxyethyl)pyridin-3-yl)-1^1-ethyl-(Ra)-3,3-dimethyl-6,8,12-trioxo-7^1,7^2,7^3,7^4,7^5,7^6-hexahydro-1^1H-5,11-dioxa-13-aza-1(3,5)-indola-7(3,1)-pyridazinaocycloundecan-9-yl)-2,3-dimethylcyclopropane-1-carboxamide]
